Assays:
HER-2 = target: T1, HER-2 (Homo sapiens, UniProt P04626); test: HER-2 Kinase Assay; type: biochemical; details: value in parentheses
T1 construct: His6 with thrombin site (N); purchased Proqinase (Freiburg, Germany)
Outline: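 Read-out was scintillation counting of 33P incorporated into biotinylated polyGluTyr captured on streptavidin plates. Reactions ran 1 h at 30 °C with GST-fused HER-2 residues 679–1255, 1 μM ATP, Mn2+ and Mg2+ at pH 7.5; data given as percent inhibition at 1 μM, with IC50 where determined.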

EGFR = target: T2, EGFR (Homo sapiens, UniProt P00533); test: EGFR Kinase Assay; type: biochemical; details: for IC50: GST-EGFR, ATP 5 μM; for inhibition at 2 µM: test concentration of 2 μM, compounds without an IC50, read-out: EGFR inhibition in percent
T2 construct: The intracellular portion of EGFR started at nucleotide 2189 (corresponding to amino acid 667) and ended at the termination codon; made in house; host or cells: Sf9 insect cells (baculovirus)
Outline: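 Potency came from triplicate 16-point half-log titrations starting at 200 uM, with IC50 fitted from % inhibition against log concentration, or % inhibition at 2 μM otherwise. Reaction: Sf9-made GST–EGFR cytoplasmic region (aa 667 onward), biotin-polyGluTyr, 5 μM ATP with 33P tracer, pH 8.0 Tris/Mg/vanadate/DTT, 30 °C for 1 h; captured on streptavidin Flashplates and counted.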

T1 sequence (P04626 679-1255): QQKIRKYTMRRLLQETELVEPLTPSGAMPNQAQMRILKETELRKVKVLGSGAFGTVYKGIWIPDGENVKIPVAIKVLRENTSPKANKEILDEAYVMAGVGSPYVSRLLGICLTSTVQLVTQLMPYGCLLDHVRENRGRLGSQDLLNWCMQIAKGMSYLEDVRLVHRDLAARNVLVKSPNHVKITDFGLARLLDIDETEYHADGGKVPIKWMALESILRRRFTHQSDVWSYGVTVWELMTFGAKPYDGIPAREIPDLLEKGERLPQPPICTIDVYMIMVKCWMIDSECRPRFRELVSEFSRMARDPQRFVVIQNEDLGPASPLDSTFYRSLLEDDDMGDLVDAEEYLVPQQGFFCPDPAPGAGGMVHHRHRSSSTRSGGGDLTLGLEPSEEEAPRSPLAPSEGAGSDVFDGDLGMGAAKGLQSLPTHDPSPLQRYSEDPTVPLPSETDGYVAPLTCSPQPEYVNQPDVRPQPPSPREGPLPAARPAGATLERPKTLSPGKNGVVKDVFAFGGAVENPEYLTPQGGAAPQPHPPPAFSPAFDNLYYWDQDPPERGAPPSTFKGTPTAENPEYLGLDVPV
T2 sequence (P00533 669-1210 limits assumed): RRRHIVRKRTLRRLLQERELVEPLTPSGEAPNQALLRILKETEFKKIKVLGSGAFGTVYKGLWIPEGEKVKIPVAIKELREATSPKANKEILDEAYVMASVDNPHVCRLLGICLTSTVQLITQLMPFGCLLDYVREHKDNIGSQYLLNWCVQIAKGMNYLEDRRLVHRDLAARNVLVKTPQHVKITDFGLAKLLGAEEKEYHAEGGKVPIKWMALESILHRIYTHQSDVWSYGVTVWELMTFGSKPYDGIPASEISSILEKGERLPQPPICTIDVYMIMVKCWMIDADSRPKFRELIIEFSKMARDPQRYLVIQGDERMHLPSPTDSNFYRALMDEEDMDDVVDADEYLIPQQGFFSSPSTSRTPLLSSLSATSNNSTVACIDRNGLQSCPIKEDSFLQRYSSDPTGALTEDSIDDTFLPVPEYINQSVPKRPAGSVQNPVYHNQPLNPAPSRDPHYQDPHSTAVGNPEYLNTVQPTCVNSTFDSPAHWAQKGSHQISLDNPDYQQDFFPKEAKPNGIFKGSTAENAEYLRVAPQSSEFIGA

IC50 (HER-2) [nM] | IC50 (EGFR) [nM] | inhibition at 2 µM (EGFR) [%] | Compound
> 10000 | 1300 |  | CN1CCCN(C(=O)c2sc3ncnc4c3c2NC(=O)N4c2ccc(Oc3ccccc3)cc2)CC1 [Cpd 214, 2-(4-methyl-[1,4]diazepane-1-carbonyl)-5-(4-phenoxy-phenyl)-3H,5H-1-thia-3,5,6,8-tetraaza-acenaphthylen-4-one]
4460 | 121 |  | CN1CCN(NC(=O)c2sc3ncnc4c3c2NC(=O)N4c2ccc(Oc3ccccc3)cc2)CC1 [Cpd 215, 4-oxo-5-(4-phenoxy-phenyl)-4,5-dihydro-3H-1-thia-3,5,6,8-tetraaza-acenaphthylene-2-carboxylic acid (4-methyl-piperazin-1-yl)-amide]
73 | 14 |  | CN1CCN(Cc2ccc(NC(=O)c3sc4ncnc5c4c3NC(=O)N5c3ccc(Sc4ccccc4)cc3)cc2)CC1 [Cpd 218, 4-oxo-5-(4-phenylsulfanyl-phenyl)-4,5-dihydro-3H-1-thia-3,5,6,8-tetraaza-acenaphthylene-2-carboxylic acid [4-(4-methyl-piperazin-1-ylmethyl)-phenyl]-amide]
355 | 141 |  | O=C(Nc1cccc(CN2CCOCC2)c1)c1sc2ncnc3c2c1NC(=O)N3c1ccc(Oc2ccccc2)cc1 [Cpd 220, 4-oxo-5-(4-phenoxy-phenyl)-4,5-dihydro-3H-1-thia-3,5,6,8-tetraaza-acenaphthylene-2-carboxylic acid (3-morpholin-4-ylmethyl-phenyl)-amide]
111 | 85 |  | O=C(Nc1ccc(CN2CCOCC2)c(Cl)c1)c1sc2ncnc3c2c1NC(=O)N3c1ccc(Oc2ccccc2)cc1 [Cpd 221, 4-oxo-5-(4-phenoxy-phenyl)-4,5-dihydro-3H-1-thia-3,5,6,8-tetraaza-acenaphthylene-2-carboxylic acid (3-chloro-4-morpholin-4-ylmethyl-phenyl)-amide]
> 100000 |  | 4 | CCOC(=O)c1sc2ncnc3c2c1NC(=O)N3c1ccc(OCc2ccco2)c(Cl)c1 [Cpd 222, 5-[3-chloro-4-(furan-2-ylmethoxy)-phenyl]-4-oxo-4,5-dihydro-3H-1-thia-3,5,6,8-tetraaza-acenaphthylene-2-carboxylic acid ethyl ester]
> 100000 |  | 5 | CCOC(=O)c1sc2ncnc3c2c1NC(=O)N3c1ccc(OCc2cccs2)c(Cl)c1 [Cpd 223, 5-[3-chloro-4-(thiophen-2-ylmethoxy)-phenyl]-4-oxo-4,5-dihydro-3H-1-thia-3,5,6,8-tetraaza-acenaphthylene-2-carboxylic acid ethyl ester]
27 | 33 |  | O=C(Nc1ccc(CN2CCOCC2)cc1)c1sc2ncnc3c2c1NC(=O)N3c1ccc(OCc2cccs2)c(Cl)c1 [Cpd 226, 5-[3-chloro-4-(thiophen-2-ylmethoxy)-phenyl]-4-oxo-4,5-dihydro-3H-1-thia-3,5,6,8-tetraaza-acenaphthylene-2-carboxylic acid (4-morpholin-4-ylmethyl-phenyl)-amide]
454 | 108 |  | COc1cc(NC(=O)c2sc3ncnc4c3c2NC(=O)N4c2ccc(Oc3cccnc3)cc2)ccc1CN1CCOCC1 [Cpd 236, 4-oxo-5-[4-(pyridin-3-yloxy)-phenyl]-4,5-dihydro-3H-1-thia-3,5,6,8-tetraaza-acenaphthylene-2-carboxylic acid (3-methoxy-4-morpholin-4-ylmethyl-phenyl)-amide]
414 | 114 |  | O=C(Nc1ccc(CN2CCOCC2)c(OC(F)(F)F)c1)c1sc2ncnc3c2c1NC(=O)N3c1ccc(Oc2ccccc2)cc1 [Cpd 239, 4-oxo-5-(4-phenoxy-phenyl)-4,5-dihydro-3H-1-thia-3,5,6,8-tetraaza-acenaphthylene-2-carboxylic acid (4-morpholin-4-ylmethyl-3-trifluoromethoxy-phenyl)-amide]
> 100000 |  | -2 | CCOC(=O)c1sc2ncnc3c2c1NC(=O)N3c1ccc(NC(=O)c2ccccc2)cc1 [Cpd 241, 5-(4-benzoylamino-phenyl)-4-oxo-4,5-dihydro-3H-1-thia-3,5,6,8-tetraaza-acenaphthylene-2-carboxylic acid ethyl ester]
42 | 22 |  | COc1cc(NC(=O)c2sc3ncnc4c3c2NC(=O)N4c2ccc(Oc3ccccc3)cc2)ccc1CN1CCCCC1 [Cpd 242, 4-oxo-5-(4-phenoxy-phenyl)-4,5-dihydro-3H-1-thia-3,5,6,8-tetraaza-acenaphthylene-2-carboxylic acid (3-methoxy-4-piperidin-1-ylmethyl-phenyl)-amide]
83 | 16 |  | COc1cc(NC(=O)c2sc3ncnc4c3c2NC(=O)N4c2ccc(OCc3ccco3)c(Cl)c2)ccc1CN1CCCCC1 [Cpd 243, 5-[3-chloro-4-(furan-2-ylmethoxy)-phenyl]-4-oxo-4,5-dihydro-3H-1-thia-3,5,6,8-tetraaza-acenaphthylene-2-carboxylic acid (3-methoxy-4-piperidin-1-ylmethyl-phenyl)-amide]

More lines, now with the values behind:

Compound | IC50 (HER-2) [nM] | IC50 (EGFR) [nM] | inhibition at 2 µM (EGFR) [%]
CN1CCN(C(=O)c2sc3ncnc4c3c2NC(=O)N4c2ccc(Oc3ccccc3)cc2)CC1 [Cpd 216, 2-(4-methyl-piperazine-1-carbonyl)-5-(4-phenoxy-phenyl)-3H,5H-1-thia-3,5,6,8-tetraaza-acenaphthylen-4-one] | ~100000 | 780 | 
O=C(NCCc1ccccn1)c1sc2ncnc3c2c1NC(=O)N3c1ccc(Oc2ccccc2)cc1 [Cpd 217, 4-oxo-5-(4-phenoxy-phenyl)-4,5-dihydro-3H-1-thia-3,5,6,8-tetraaza-acenaphthylene-2-carboxylic acid (2-pyridin-2-yl-ethyl)-amide] | > 100000 | 225 | 
COc1cc(NC(=O)c2sc3ncnc4c3c2NC(=O)N4c2ccc(Sc3ccccc3)cc2)ccc1CN1CCOCC1 [Cpd 219, 4-oxo-5-(4-phenylsulfanyl-phenyl)-4,5-dihydro-3H-1-thia-3,5,6,8-tetraaza-acenaphthylene-2-carboxylic acid (3-methoxy-4-morpholin-4-ylmethyl-phenyl)-amide] | 58 | 127 | 
COc1cc(NC(=O)c2sc3ncnc4c3c2NC(=O)N4c2ccc(Sc3ccccc3)cc2)ccc1CN1CCCCC1 [Cpd 224, 4-oxo-5-(4-phenylsulfanyl-phenyl)-4,5-dihydro-3H-1-thia-3,5,6,8-tetraaza-acenaphthylene-2-carboxylic acid (3-methoxy-4-piperidin-1-ylmethyl-phenyl)-amide] | 27 | 14 | 
O=C(Nc1ccc(CN2CCCCC2)cc1)c1sc2ncnc3c2c1NC(=O)N3c1ccc(OCc2cccs2)c(Cl)c1 [Cpd 227, 5-[3-chloro-4-(thiophen-2-ylmethoxy)-phenyl]-4-oxo-4,5-dihydro-3H-1-thia-3,5,6,8-tetraaza-acenaphthylene-2-carboxylic acid (4-piperidin-1-ylmethyl-phenyl)-amide] | 33 | 19 | 
COc1cc(NC(=O)c2sc3ncnc4c3c2NC(=O)N4c2ccc(OCc3cccs3)c(Cl)c2)ccc1CN1CCCCC1 [Cpd 228, 5-[3-chloro-4-(thiophen-2-ylmethoxy)-phenyl]-4-oxo-4,5-dihydro-3H-1-thia-3,5,6,8-tetraaza-acenaphthylene-2-carboxylic acid (3-methoxy-4-piperidin-1-ylmethyl-phenyl)-amide] | 33 | 17 | 
COc1cc(NC(=O)c2sc3ncnc4c3c2NC(=O)N4c2ccc(OCc3cccs3)c(Cl)c2)ccc1CN1CCOCC1 [Cpd 229, 5-[3-chloro-4-(thiophen-2-ylmethoxy)-phenyl]-4-oxo-4,5-dihydro-3H-1-thia-3,5,6,8-tetraaza-acenaphthylene-2-carboxylic acid (3-methoxy-4-morpholin-4-ylmethyl-phenyl)-amide] | 17 | 33 | 
CN1CCC(NC(=O)c2sc3ncnc4c3c2NC(=O)N4c2ccc(OCc3cccs3)c(Cl)c2)CC1 [Cpd 230, 5-[3-chloro-4-(thiophen-2-ylmethoxy)-phenyl]-4-oxo-4,5-dihydro-3H-1-thia-3,5,6,8-tetraaza-acenaphthylene-2-carboxylic acid (1-methyl-piperidin-4-yl)-amide] | 367 | 109 | 
O=C(Nc1ccc(CN2CCOCC2)c(C(F)(F)F)c1)c1sc2ncnc3c2c1NC(=O)N3c1ccc(Oc2ccccc2)cc1 [Cpd 231, 4-oxo-5-(4-phenoxy-phenyl)-4,5-dihydro-3H-1-thia-3,5,6,8-tetraaza-acenaphthylene-2-carboxylic acid (4-morpholin-4-ylmethyl-3-trifluoromethyl-phenyl)-amide] | 1050 | 314 | 
O=C(Nc1ccc(CN2CCOCC2)cc1)c1sc2ncnc3c2c1NC(=O)N3c1ccc(Oc2cccnc2)cc1 [Cpd 237, 4-oxo-5-[4-(pyridin-3-yloxy)-phenyl]-4,5-dihydro-3H-1-thia-3,5,6,8-tetraaza-acenaphthylene-2-carboxylic acid (4-morpholin-4-ylmethyl-phenyl)-amide] | 454 | 90 | 
O=C(Nc1ccc(CN2CCCCC2)cc1)c1sc2ncnc3c2c1NC(=O)N3c1ccc(Oc2cccnc2)cc1 [Cpd 238, 4-oxo-5-[4-(pyridin-3-yloxy)-phenyl]-4,5-dihydro-3H-1-thia-3,5,6,8-tetraaza-acenaphthylene-2-carboxylic acid (4-piperidin-1-ylmethyl-phenyl)-amide] | 1050 | 132 | 
